Data from patent publication US20100041751A1, “Method to Reduce Oxidative Damage and Improve Mitochondrial Efficiency” (ACCERA, INC., priority 2005, published 2010).
Entries after “also recorded” stand apart in the source; their conditions may differ. Like-named read-outs stand apart in the source and are kept apart here.

Assays:
[1] = cited from earlier work; for amount that will dissolve in water: in 1 liter of water at 20° C.
MPTP treated mice = test: MPTP mouse model of Parkinson's disease; format: in vivo, C57BL mice
Description: 8- to 10-week-old male C57BL mice will be divided into four groups: control, MPTP treated plus dextrose, and MPTP treated plus MCT. In dextrose treated pups, 0.5 g/kg of dextrose will be administered by oral gavage 2 to 4 hours before MPTP treatment. In MCT treated pups, 0.5 g/kg of MCTs will be administered by oral gavage 2 to 4 hours before MPTP treatment. Each mouse will then be randomly assigned to receive four intraperitoneal injections of either MPTP (18 mg/kg of free base in saline) or saline at 2-hour intervals. Mice will subsequently be tested for motor performance on a rotarod. The rotarod will consist of four rotating rods of 3 cm diameter in separated compartments. Seven days after MPTP or saline injections the mice will be first pretrained three times (1 hour apart) using an accelerating mode. After the training sessions, the time on the rod will be recorded for successive rotational speeds, and the overall rod performance (ORP) for each mouse calculated.
Seven days after the last MPTP injection, mice will be killed and their brain tissue processed for immunohistochemical studies to examine levels of oxidative stress and effects of MPTP treatment. Cell fractions from the biopsied tissue will be frozen and analyzed for oxidative damage using markers of peroxynitrite, lipid peroxidation and 3-nitrotyrosine. […] In addition mitochondria will be isolated from each group and examined for mitochondrial efficiency.

brain mitochondria = test: Respiration assays on brain mitochondria isolated from biopsies of MCT-fed aged beagle dogs; format: in vivo; details: for respiratory control ratio (RCR), coupling of respiration with ATP production: state III / state IV respiration, treatment vs control
Description: On the day of biopsy, the treatment group was administered 2 g/kg of MCTs and the control group was administered an isocaloric solution of sucrose by an oral-gastric tube. Approximately two hours after dosing, the animals were anaesthetized and biopsies were taken from the frontal and parietal lobes. Immediately after removing the biopsy tissue, the animals were euthanized with an injectable euthanizing agent.
Using the biopsied material, brain mitochondria were isolated and the following parameters were assayed in real-time:
Mitochondrial Assays. Mitochondria were isolated using differential centrifugation and released from synaptosomes using a nitrogen cell disrupter (1000 psi for 5 minutes).
The respiration assays were conducted using standard polarography in a sealed, thermostated, stirred chamber containing a Clark-type electrode, which measures oxygen within the chamber. The system was calibrated with oxygen-saturated water, to standardize the quantification of oxygen consumption. The assays were conducted at 37° C.
Once the mitochondria were inserted into the Oxytherm, complex I driven respiration (state II respiration) was measured by adding pyruvate and malate (2.5 and 5 mM). Subsequently, 150 μM ADP was added to induce state III respiration, which measured the rate of active respiration. Oligomycin was added to inhibit ATP synthase and put the mitochondria into state IV respiration. To assess UCP activity, free fatty acids were added. FCCP then was added to completely uncouple the mitochondria by depolarizing the membrane potential, which caused maximum electron transport activity and maximum oxygen consumption. Finally, rotenone was added to inhibit complex I electron transport and succinate was added to measure maximum complex II-driven electron transport and oxygen consumption (complex II-driven respiration). The respiratory control ratio (RCR) was tabulated by dividing state III respiration rates by state IV respiration rates.
The respiration rates that were tabulated on-site were analyzed using repeated-measures ANOVAs. For each measure, brain region (frontal vs. parietal) was the within-subject variable and group (control vs. MCT) was the between-subject variable.

[2] = Serum beta-hydroxybutyrate (BHB) levels in aged beagle dogs fed MCTs; format: in vivo
Description: Reducing oxidative damage and improving mitochondrial efficiency. Two groups of aged beagle dogs were tested for the effects of feeding MCT on oxidative damage and mitochondrial efficiency. The first group was maintained on MCTs (2 g/kg/day) and the second group on placebo control over a 2-month period. Blood samples were taken over 5 time points to monitor levels of the ketone body, beta-hydroxybutyrate (BHB). After two months of treatment, the dogs were anaesthetized and brain biopsies were collected for mitochondrial analysis. The animals were then euthanized and brain tissue was harvested for further analysis of mitochondrial function and protein levels.
The eight subjects (8-11 years) were divided into two equal sized groups, matched for age and sex. The first group was administered 2 g/kg/day of MCTs, which was added to their maintenance diet, and the other received only the maintenance diet. The test substance was manually added to the dog's normal chow and introduced over three days, such that one-third of the maximum dose was administered on the first day, two-thirds on the second day and the full dose on the third day. The subjects were maintained on the test substance over a two-month period. Blood samples for BHB analysis were taken on: Baseline (Day 0), Day 4, Day 14, Day 28, Biopsy/Euthanasia (Day 56 or 57).
Biopsy procedure. Approximately 30 minutes prior to surgery, a blood sample was taken for BHB analysis and then the animals were pre-medicated with acepromazine. Animals were induced using isoflurane (inhaled) via a facemask. The animal then were intubated and maintained in a deep plane of anaesthesia using isoflurane. […]
Serum BHB levels were assessed at five different time-points: (1) prior to treatment onset (T0), (2) after 4 days of treatment (T1), (3) after 14 days of treatment (T2), (4) after 28 days of treatment (T3), and (5) on the biopsy date (T4). The levels were analyzed using a repeated-measures ANOVA with time-point (T0 vs. T1 vs. T2 vs. T3 vs. T4) as a within-subject variable and group (control vs. MCT) as a between-subject variable.

[3] = system: brain tissue fractions (mitochondrial, P1, cytosolic); test: Markers of oxidative damage in brain fractions of MCT-fed aged beagle dogs; format: in vivo; details: MCT vs control
Description: The remaining mitochondria were stored in 10% DMSO at −80° C. and assayed for UCP isoforms by western blot and quantification of oxidative damage in the mitochondrial, P1 and cytosolic fractions. Mitochondria from the biopsied tissue were frozen and analyzed for oxidative damage using markers of peroxynitrite, lipid peroxidation and 3-nitrotyrosine. Markers of Oxidative Damage. The markers of oxidative damage were analyzed using a repeated-measures ANOVA with region (frontal vs. parietal) and fraction (mitochondrial vs. P1 vs. cytosolic) as the within-subject variables and group (control vs. MCT) as the between-subject variable.

CCCCCC(=O)O [Caproic, caproic acid]
Solubility [1]: 9.7 grams of acid per liter | amount that will dissolve in water [1]: 9.7 grams

CCCCCCCCCCCCCCCC(=O)O [Palmitic, palmitic acid]
amount that will dissolve in water [1]: 0.007 grams

CCCCCCCC(=O)OCC(COC(=O)CCCCCCC)OC(=O)CCCCCCC [MCTs, tri-C8:0 medium chain triglycerides]
motor performance on rotarod (MPTP treated mice; 0.5 g/kg MCTs oral gavage 2 to 4 hours before MPTP): lessen the decline in motor performance | signs of oxidative damage (MPTP treated mice; brain tissue seven days after last MPTP injection): fewer signs of oxidative damage | mitochondrial efficiency (MPTP treated mice; isolated mitochondria): improved mitochondrial efficiency | State III respiration (brain mitochondria; parietal and frontal cortices vs control, group effect p=0.008): more oxygen consumption per minute than the control group | State IV respiration (brain mitochondria; parietal and frontal cortices vs control, marginally significant p=0.067): slightly more oxygen consumption per minute than the control group | Uncoupling Protein (UCP) activity (brain mitochondria; parietal and frontal cortices vs control, marginally significant p=0.086): consumed more oxygen per minute than the control animals | improvement of mitochondrial function by brain region (brain mitochondria; parietal cortex vs frontal cortex): more effective at improving mitochondrial function in the parietal cortex than the frontal cortex | State II respiration (brain mitochondria; parietal cortex, oxygen consumption per minute per mg of tissue vs control, p=0.010): significantly less oxygen consumption | respiratory control ratio (RCR), coupling of respiration with ATP production (brain mitochondria): better coupling of respiration with ATP formation | respiratory control ratio (RCR), coupling of respiration with ATP production (brain mitochondria; listed as MCT): better coupled to ATP production | Complex I-driven respiration (maximum electron transport capacity) (brain mitochondria; vs control, group effect p=0.002): larger maximum electron transport activity than the control group | Complex II-driven respiration (brain mitochondria; vs control, region x group interaction p=0.047, listed as MCT): consumed more oxygen per minute than the control in the parietal cortex; also recorded: no difference | levels of serum BHB ([2]; aged beagle dogs, MCTs 2 g/kg/day for 2 months vs control): increased levels of serum BHB | Serum BHB levels at T4 ([2]; biopsy date (Day 56 or 57), MCT vs control, p=0.012): significantly higher | Serum BHB levels at T3 ([2]; day 28 of treatment, MCT vs control, p=0.041): significantly higher | Lipid oxidation, effect of group ([3]; frontal and parietal, mitochondrial, P1 and cytosolic fractions): no additional significant or marginally significant effects | signs of oxidative damage ([3]; peroxynitrite (protein oxidation), lipid oxidation and 3-nitrotyrosine): decreased signs of oxidative damage; also recorded: decrease oxidative damage

CCCCCCCCCCCCCC(=O)O [Myristic]
Solubility ([1]; water at 20° C.): 0.02 grams of acid per liter

CCCCCCCCCCCC(=O)O [Lauric]
Solubility ([1]; water at 20° C.): 0.055 grams of acid per liter
